Data as given in patent publication US20060111305A1, “Metabolites of certain [1,4]diazepino[6,7,1-ij]quinoline derivatives and methods of preparation and use thereof” (Wyeth, priority 2004, published 2006).
Where two headings read alike, the source gives them in different places.

Columns and labels:
[1] = Dog urinary excretion and metabolite profiles after oral capsule of [14C]DCDQ; assay type: in vivo, beagle dogs
Experimental: Blood samples were collected from the jugular vein at 2, 4, 8, 24 and 48 hour after dose administration into tubes containing potassium EDTA as the anticoagulant and then placed on ice. Aliquots of 50 μL were removed for combustion and determination of radioactivity content. Plasma was immediately obtained from the remaining blood by centrifugation at 4° C. Urine samples were collected into tubes on dry ice at intervals of 0-8, 8-24 and 24-48 hour post-dose. Fecal samples were collected at intervals of 0-8, 8-24 and 24-48 hour post-dose at room temperature, and were homogenized. The biological specimens were stored at approximately −70° C. until analysis.
(§1) For plasma profiles, a TopCount NXT radiometric microplate reader (Perkin Elmer) was used to analyze the radioactivity in collected HPLC fractions. The limit of detection by TopCount was about 1 ng equivalent/mL. A Flo-One β Model A525 radioactivity detector (Perkin Elmer) with a 250 μL LQTR flow cell was used to acquire data for urine and fecal samples. The flow rate of Ultima Flow M scintillation fluid was 1 mL/min, providing a mixing ratio of scintillation cocktail to mobile phase of 5:1. The limits of detection by Flo-One detector were about 200 ng equivalents/mL for urine and 12 ng equivalents/g for feces.
Urine was analyzed for radioactivity concentration and analyzed by HPLC with radioactivity flow detection for metabolite profiles by direct injection to the HPLC column. LC/MS analyses for metabolite identification were also carried out with urine samples.
(§2) A Waters model 2690 HPLC system (Waters Corp., Milford, Mass.) with a built-in autosampler was used for analysis. Separations were accomplished on a Phenomenex Luna C18(2) column (150×2.0 mm, 5 μm) (Phenomenex, Torrance, Calif.). The sample chamber of the autosampler was maintained at 4° C., while the column was at ambient temperature of about 20° C. A variable wavelength UV detector set to monitor 250 nm and a Flo-One β Model A525 radioactivity detector were used for data acquisition. The HPLC mobile phase consisted of 10 mM ammonium acetate, pH 4.5 (A) and acetonitrile (B), and was delivered at 0.2 mL/min. Chromatographic condition A was used for dose analysis, while condition B was used for analysis of urine and plasma, brain and fecal extracts.

[2] = Dog plasma metabolite profiles after single 15 mg/kg oral capsule of [14C]DCDQ; assay type: in vivo, beagle dogs
Experimental: as §1
Plasma samples were analyzed for metabolite profiles by HPLC. Aliquots of plasma were mixed with two volumes of cold methanol containing 0.1% trifluoroacetic acid (TFA), placed on ice for about 2 minutes and then centrifuged. The supernatant fluid was transferred to a clean tube and evaporated at 22° C. under nitrogen in a Zymark TurboVap LV (Caliper Life Sciences, Hopkinton, Mass.) to a volume of about 0.3 mL. The residue was centrifuged, the supernatant volume measured and extraction efficiency determined by analysis of duplicate 20 μL aliquots for radioactivity. A 200 μL aliquot of the supernatant was injected onto the HPLC column and the effluent was collected at 20 second intervals into 96-well Lumaplates (Perkin Elmer). The plates were dried overnight in an oven at 40° C. and analyzed by a TopCount. Plasma extracts were also analyzed by LC/MS.
as §2

[3] = Metabolites of DCDQ generated by liver microsomes and hepatocytes, LC/MS characterization (Table 6); assay type: in vitro ADME; details: MM mouse, RM rat, DM dog, HM human liver microsomes; HH human hepatocytes
Text: An Agilent Model 1100 HPLC system (Agilent Technologies, Palo Alto, Calif.) including an autosampler and diode array UV detector was used for LC/MS analysis. The UV detector was set to monitor 200 to 400 nm. For selected LC/MS analysis, radiochromatograms were acquired using a β-Ram model 3 radioactivity flow detector (IN/US Systems Inc., Tampa, Fla.) equipped with a solid scintillant flow cell. Separations were accomplished on a Phenomenex Luna C18(2) column (2×150 mm, 5 μm) under the same conditions as described above.
The mass spectrometer used for metabolite characterization was a Micromass Q-TOF-2 quadrupole time-of-flight hybrid mass spectrometer ([…].). The mass spectrometer was equipped with an electrospray ionization (ESI) interface and operated in the positive ionization mode. Collision energy settings of 5 and 30 eV were used for full MS and MS/MS scans, respectively. Settings for the mass spectrometer are listed below.
Mass spectra were obtained by LC/MS and LC/MS/MS analysis for DCDQ and its metabolites.

[4] = male, beagle, dog, plasma, oral, 15 mg/kg, 2 hr, dog 2, read-out: Estimated plasma concentration in dogs
[5] = male, beagle, dog, plasma, oral, 15 mg/kg, 4 hr, dog 1, read-out: Estimated plasma concentration in dogs
[6] = male, beagle, dog, plasma, oral, 15 mg/kg, 4 hr, dog 2, read-out: Estimated plasma concentration in dogs
[7] = male, beagle, dog, plasma, oral, 15 mg/kg, 24 hr, dog 3, read-out: Estimated plasma concentration in dogs

SMILES	Chromatographic distribution of radioactivity in dog urine ([1]; 8-24 hr, dog 1) [%]	Chromatographic distribution of radioactivity in dog urine ([1]; 8-24 hr, dog 3) [%]	Chromatographic distribution of radioactivity in dog urine ([1]; 24-48 hr, Mean) [%]	Chromatographic distribution of radioactivity in dog urine ([1]; 24-48 hr, dog 1) [%]	Chromatographic distribution of radioactivity in dog urine ([1]; 24-48 hr, dog 3) [%]	Chromatographic distribution of radioactivity in dog urine ([1]; 24-48 hr, dog 4) [%]	Chromatographic distribution of radioactivity in dog plasma ([2]; 2 hr, dog 2) [%]	Chromatographic distribution of radioactivity in dog plasma ([2]; 4 hr, dog 1) [%]	Chromatographic distribution of radioactivity in dog plasma ([2]; 4 hr, dog 2) [%]	Estimated plasma concentration in dogs ([2]; 8 hr, dog 2)	Estimated plasma concentration in dogs ([2]; 8 hr, dog 3)	Chromatographic distribution of radioactivity in dog plasma ([2]; 24 hr, dog 3) [%]	Estimated plasma concentration in dogs ([2]; 48 hr, dog 1)	Estimated plasma concentration in dogs ([2]; 48 hr, dog 2)	Estimated plasma concentration in dogs ([2]; 48 hr, dog 3)	concentration at 2 h [2, 4] [ng/mL]	concentration at 4 h [2, 5] [ng/mL]	concentration at 4 h [2, 6] [ng/mL]	concentration at 24 h [2, 7] [ng/mL]	Source [3]	other results
OC1[C@@H]2CCC[C@@H]2c2cccc3c2N1CCNC3 (some centres unmarked) [Metabolite M2, hydroxy DCDQ]	21	26	22	25	22	21	8.0	6.6	12	BQL	BQL	7.0	BQL	BQL	BQL	99.5	33.1	192	135	MM, RM, DM, HM, HH	Chromatographic distribution of radioactivity in dog urine ([1]; 0-8 hr, dog no. not printed (dog 1 by footnote a)): 10%; Chromatographic distribution of radioactivity in dog urine ([1]; 8-24 hr, Mean): 24%; Chromatographic distribution of radioactivity in dog urine ([1]; 8-24 hr, dog 2): 26%; Chromatographic distribution of radioactivity in dog urine ([1]; 24-48 hr, dog 2): 18%; Estimated plasma concentration in dogs ([2]; 2 hr, dog 1): BQL^b; Estimated plasma concentration in dogs ([2]; 8 hr, dog 1): BQL; Estimated plasma concentration in dogs ([2]; 24 hr, dog 1): BQL; Chromatographic distribution of radioactivity in dog plasma ([2]; 24 hr, dog 2): 5.0%; concentration at 24 h ([2]; male, beagle, dog, plasma, oral, 15 mg/kg, 24 hr, dog 2, read-out: Estimated plasma concentration in dogs): 55.3 ng/mL
c1cc2c3c(c1)[C@H]1CCC[C@H]1CN3CCNC2 [DCDQ, (9aR,12aS)-4,5,6,7,9,9a,10,11,12,12a-decahydro-cyclopenta[c][1,4]diazepine[6,7,1-ij]quinoline, reference compound]	9.5	11	3.4	3.8	3.0	6.9	1.9	11	21	BQL	BQL	2.3	BQL	BQL	BQL	23.2	52.5	345	43.8	MM, RM, DM, HM, HH	Chromatographic distribution of radioactivity in dog plasma ([2]; 2 hr, dog 1): 11%; Chromatographic distribution of radioactivity in dog plasma ([2]; 8 hr, dog 1): 2.7%; Chromatographic distribution of radioactivity in dog plasma ([2]; 24 hr, dog 1): 2.6%; Estimated plasma concentration in dogs ([2]; 24 hr, dog 2): BQL; concentration at 2 h ([2]; male, beagle, dog, plasma, oral, 15 mg/kg, 2 hr, dog 1, read-out: Estimated plasma concentration in dogs): 39.6 ng/mL; concentration at 8 h ([2]; male, beagle, dog, plasma, oral, 15 mg/kg, 8 hr, dog 1, read-out: Estimated plasma concentration in dogs): 14.5 ng/mL; concentration at 24 h ([2]; male, beagle, dog, plasma, oral, 15 mg/kg, 24 hr, dog 1, read-out: Estimated plasma concentration in dogs): 39.6 ng/mL
